According to patent publication US7868204B2, “Inhibitors of histone deacetylase” (MethylGene Inc., priority 2001, dated 2011):
Where two headings read alike, the source gives them in different places. Blank lines part the entries; values can stand above or below the molecule they belong to.

Columns and labels:
[1] = test system: HCT116 cells; experiment: MTT assay; format: cell-based; settings: Homo sapiens, HCT116 cells, 72 hours
Method: HCT116 cells (2000/well) were plated into 96-well tissue culture plates one day before compound treatment. Compounds at various concentrations were added to the cells. The cells were incubated for 72 hours at 37° C. in 5% CO2 incubator. MTT (3-[4,5-dimethylthiazol-2-yl]-2,5 diphenyl tetrazolium bromide, Sigma) was added at a final concentration of 0.5 mg/ml and incubated with the cells for 4 hours before one volume of solubilization buffer (50% N,N-dimethylformamide, 20% SDS, pH 4.7) was added onto the cultured cells. […] OD values were converted to cell numbers according to a standard growth curve of the relevant cell line.

[2] = target: T1, cloned recombinant human HDAC-1 (Homo sapiens, UniProt Q13547); experiment: Human HDAC-1 enzyme inhibition, Assay 1 ([3H]-acetylated histone substrate, scintillation counting); format: biochemical
T1 construct: made in house; host or cells: Baculovirus insect cell expression system
Method: Assay 1. HDAC inhibitors were screened against a cloned recombinant human HDAC-1 enzyme expressed and purified from a Baculovirus insect cell expression system. […] The mixture was extracted with ethyl acetate and the released [^3H]-acetic acid was quantified by scintillation counting. For inhibition studies, the enzyme was preincubated with compounds at 4° C. for 30 minutes prior to initiation of the enzymatic assay. IC50 values for HDAC enzyme inhibitors were determined by performing dose response curves with individual compounds and determining the concentration of inhibitor producing fifty percent of the maximal inhibition.

[3] = Table 5d, read-out: HDAC-1 IC50
[4] = Table 5F, read-out: Human HDAC-1 IC50
[5] = Table 5b, read-out: Human HDAC-1 IC50
[6] = Table 5c, read-out: Human HDAC-1 IC50
[7] = Table 5E, read-out: Human HDAC-1 IC50

T1 sequence (Q13547 whole entry): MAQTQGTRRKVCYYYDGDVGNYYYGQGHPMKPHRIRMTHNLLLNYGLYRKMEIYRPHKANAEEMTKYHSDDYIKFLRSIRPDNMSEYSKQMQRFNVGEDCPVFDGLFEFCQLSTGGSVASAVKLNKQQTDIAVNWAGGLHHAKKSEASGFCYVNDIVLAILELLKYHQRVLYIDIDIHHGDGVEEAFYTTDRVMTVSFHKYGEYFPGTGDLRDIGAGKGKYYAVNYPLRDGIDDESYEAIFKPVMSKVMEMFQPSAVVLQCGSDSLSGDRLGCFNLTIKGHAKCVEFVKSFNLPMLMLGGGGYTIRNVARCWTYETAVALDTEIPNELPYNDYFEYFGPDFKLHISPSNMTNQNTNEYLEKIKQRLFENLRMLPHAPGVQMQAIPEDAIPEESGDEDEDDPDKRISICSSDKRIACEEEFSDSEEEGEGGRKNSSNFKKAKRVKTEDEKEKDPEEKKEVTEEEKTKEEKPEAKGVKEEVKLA

SMILES: COc1cc(Cl)nc(NCc2ccc(/C=C/C(=O)Nc3ccccc3N)cc2)n1 [Cpd 493, N-(2-Amino-phenyl)-3-{4-[(4-chloro-6-methoxy-pyrimidin-2-ylamino)-methyl]-phenyl]-acrylamide]
IC50 ([1]; HCT-116, Table 5d): 5 µM
IC50 [2, 3]: 4 µM

SMILES: Nc1ccccc1NC(=O)c1ccc(CN2C(=O)COc3cccnc32)cc1 [Cpd 364, N-(2-Amino-phenyl)-4-(3-oxo-2,3-dihydro-pyrido[3,2-b][1,4]oxazin-4-ylmethyl)-benzamide]
IC50 ([1]; HCT-116, 72 h, Table 5F): 0.6 µM
IC50 [2, 4]: 4 µM

SMILES: Nc1ccccc1NC(=O)c1ccc(N2CCOCC2)cc1 [Cpd 238]
IC50 ([1]; HCT-116, 72 h, Table 5F): 6 µM
IC50 [2, 4]: 3 µM

SMILES: CSc1cccc(NCc2ccc(/C=C/C(=O)Nc3ccccc3N)cc2)c1 [Cpd 555, N-(2-Amino-phenyl)-3-{4-[(3-methylsulfanyl-phenylamino)-methyl]-phenyl}-acrylamide]
IC50 ([1]; HCT-116, Table 5d): 7 µM
IC50 [2, 3]: 14 µM

SMILES: CCCc1nc(Cc2ccc(C(=O)Nc3ccccc3N)cc2)no1 [Cpd 356]
IC50 ([1]; HCT-116, 72 h, Table 5F): 2 µM
IC50 [2, 4]: 5 µM

SMILES: Nc1ccccc1NC(=O)c1ccc(CNc2nc(NCCc3cccnc3)nc(NC3CC3)n2)cc1 [Cpd 481]
IC50 ([1]; HCT-116, 72 h, Table 5b): 0.7 µM
IC50 [2, 5]: 6 µM

SMILES: CSc1ccc(NCc2ccc(/C=C/C(=O)Nc3ccccc3N)cc2)cc1C(F)(F)F [Cpd 566, N-(2-Amino-phenyl)-3-{4-[(4-methylsulfanyl-3-trifluoromethyl-phenylamino)-methyl]-phenyl]-acrylamide]
IC50 ([1]; HCT-116, Table 5d): 16 µM
IC50 [2, 3]: 3 µM

SMILES: CC(=O)NCc1cccc(NCc2ccc(/C=C/C(=O)Nc3ccccc3N)cc2)c1 [Cpd 533, 3-(4-{[3-(Acetylamino-methyl)-phenylamino]-methyl}-phenyl)-N-(2-amino-phenyl)-acrylamide]
IC50 ([1]; HCT-116, Table 5d): 11 µM
IC50 [2, 3]: 5 µM

SMILES: COc1cc(CN(C)Cc2ccc(/C=C/C(=O)Nc3ccccc3N)cc2)cc(OC)c1OC [Cpd 107]
IC50 ([1]; HCT-116, 72 h, Table 5c): 17 µM
IC50 [2, 6]: 15 µM

SMILES: COc1cccc(-c2ccc(C(=O)Nc3ccccc3N)cn2)c1 [Cpd 141, N-(2-Amino-phenyl)-6-(3-methoxyphenyl)-nicotinamide]
IC50 ([1]; HCT-116, 72 h, Table 5E): 10 µM
IC50 [2, 7]: 7 µM

SMILES: Nc1ccccc1NC(=O)c1ccc(CNc2nc(NCCc3ccccc3)nc(NC3Cc4ccccc4C3)n2)cc1 [Cpd 27]
IC50 ([1]; HCT-116, 72 h, Table 5a): 2 µM
IC50 ([2]; Table 5a, read-out: Human HDAC-1 IC50): 0.4 µM

SMILES: C=C(C)C#Cc1ccc(C(=O)Nc2ccccc2N)cc1 [Cpd 193]
IC50 ([1]; HCT-116, 72 h, Table 5F): 16 µM
IC50 [2, 4]: 4 µM

SMILES: Nc1ccccc1NC(=O)/C=C/c1ccc(CNc2cccc(O)c2)cc1 [Cpd 528]
IC50 ([1]; HCT-116, Table 5d): 32 µM
IC50 [2, 3]: 20 µM

SMILES: Nc1ccccc1NC(=O)c1ccc(CNc2nccc3ccccc23)cc1 [Cpd 399, N-(2-Amino-phenyl)-4-(isoquinolin-1-ylaminomethyl)-benzamide]
IC50 ([1]; HCT-116, 72 h, Table 5F): 9 µM
IC50 [2, 4]: 14 µM

SMILES: Nc1ccccc1NC(=O)c1ccc(CCN2C(=O)c3ccccc3C2=O)cc1 [Cpd 152, N-(2-Amino-phenyl)-4-[2-(1,3-dioxo-1,3-dihydro-isoindol-2-yl)-ethyl]-benzamide]
IC50 ([1]; HCT-116, 72 h, Table 5E): 11 µM
IC50 [2, 7]: 0.3 µM

SMILES: COc1ccc(C2=NC(c3ccc(C(=O)Nc4ccccc4N)cc3)CO2)cc1OC (centres unmarked) [compound 301, N-(2-Amino-phenyl)-4-[2-(3,4-dimethoxy-phenyl)-4,5-dihydro-oxazol-4-yl]-benzamide]
IC50 ([1]; HCT-116, 72 h, Table 5F): 3 µM
IC50 [2, 4]: 3 µM

SMILES: Nc1ccccc1NC(=O)c1ccc(CNc2nc(NCCc3ccc(Cl)cc3)nc(NC3CC3)n2)cc1 [Cpd 475]
IC50 ([1]; HCT-116, 72 h, Table 5b): 2 µM
IC50 [2, 5]: 0.6 µM

SMILES: Nc1nc(/C=C/c2ccc(C(=O)Nc3ccccc3N)cc2)nc(N2CCCCC2)n1 [Cpd 223]
IC50 ([1]; HCT-116, 72 h, Table 5b): 2 µM
IC50 [2, 5]: 11 µM

SMILES: CCCCNc1nc(NCCc2ccccc2)nc(NCc2ccc(C(=O)Nc3ccccc3N)cc2)n1 [Cpd 473]
IC50 ([1]; HCT-116, 72 h, Table 5b): 3 µM
IC50 [2, 5]: 4 µM

SMILES: Nc1ccccc1NC(=O)/C=C/c1ccc(CCNC(=O)OCc2cccnc2)cc1 [Cpd 105]
IC50 ([1]; HCT-116, 72 h, Table 5c): 14 µM
IC50 [2, 6]: 16 µM

SMILES: Nc1ccccc1NC(=O)/C=C/c1ccc(CNc2cc(Cl)cc(Cl)c2)cc1 [Cpd 535, N-(2-Amino-phenyl)-3-{4-[(3,5-dichloro-phenylamino)-methyl]-phenyl}-acrylamide]
IC50 ([1]; HCT-116, Table 5d): 6 µM
IC50 [2, 3]: 4 µM

SMILES: Nc1ccccc1NC(=O)/C=C/c1ccc(Br)cc1 [Cpd 516, N-(2-Amino-phenyl)-3-(4-bromo-phenyl)-acrylamide]
IC50 ([1]; HCT-116, Table 5d): 15 µM
IC50 [2, 3]: 15 µM

SMILES: Nc1ccccc1NC(=O)/C=C/c1ccc(CNc2cccc(Cl)c2)cc1 [Cpd 553, N-(2-Amino-phenyl)-3-{4-[(3-chloro-phenylamino)-methyl]-phenyl}-acrylamide]
IC50 ([1]; HCT-116, Table 5d): 12 µM
IC50 [2, 3]: 4 µM

SMILES: CC(C)(O)C#Cc1ccc(C(=O)Nc2ccccc2N)cc1 [Cpd 195]
IC50 ([1]; HCT-116, 72 h, Table 5F): 9 µM
IC50 [2, 4]: 7 µM

SMILES: N#Cc1cccc(NCc2ccc(C=CC(=O)Nc3ccccc3N)cc2)c1 [Cpd 532]
IC50 ([1]; HCT-116, Table 5d): 5 µM
IC50 [2, 3]: 3 µM

SMILES: COc1cc(OC)c(OC)cc1CNc1ccc(/C=C/C(=O)Nc2ccccc2N)cc1 [Cpd 517]
IC50 ([1]; HCT-116, Table 5d): 5 µM
IC50 [2, 3]: 6 µM

More lines, now with the values ahead:

IC50 ([1]; HCT-116, Table 5d): 5 µM
IC50 [2, 3]: 6 µM
SMILES: CC(C)c1ccc(NCc2ccc(/C=C/C(=O)Nc3ccccc3N)cc2)cc1 [Cpd 510, N-(2-Amino-phenyl)-3-{4-[(4-isopropyl-phenylamino)-methyl]-phenyl}-acrylamide]

IC50 ([1]; HCT-116, Table 5d): 8 µM
IC50 [2, 3]: 4 µM
SMILES: Nc1ccccc1NC(=O)/C=C/c1ccc(CNc2ccc(I)cc2)cc1 [Cpd 547, N-(2-Amino-phenyl)-3-{4-[(4-iodo-phenylamino)-methyl]-phenyl}-acrylamide]

IC50 ([1]; HCT-116, Table 5d): 9 µM
IC50 [2, 3]: 3 µM
SMILES: Nc1ccccc1NC(=O)/C=C/c1ccc(CNc2cccc(I)c2)cc1 [Cpd 548, N-(2-Amino-phenyl)-3-{4-[(3-iodo-phenylamino)-methyl]-phenyl}-acrylamide]

IC50 ([1]; HCT-116, 72 h, Table 5b): 0.7 µM
IC50 [2, 5]: 0.1 µM
SMILES: Nc1ccccc1NC(=O)c1ccc(CNc2nc(NC3CC3)nc(OCCc3ccccc3)n2)cc1 [Cpd 482]

IC50 ([1]; HCT-116, 72 h, Table 5c): 9 µM
IC50 [2, 6]: 15 µM
SMILES: Nc1ccc(CNc2ncc(/C=C/C(=O)Nc3ccccc3N)cn2)cc1 [Cpd 115, 3-[2-(4-amino-benzylamino)-pyrimidin-5-yl]-N-(2-amino-phenyl)-acrylamide]

IC50 ([1]; HCT-116, 72 h, Table 5c): 21 µM
IC50 [2, 6]: 16 µM
SMILES: COc1ccc(C(=O)Nc2ccc(/C=C/C(=O)Nc3ccccc3N)cc2)cc1 [Cpd 72, N-(4-[2-(2-Amino-phenylcarbamoyl)-vinyl]-phenyl}-4-methoxy-benzamide]

IC50 ([1]; HCT-116, 72 h, Table 5F): 10 µM
IC50 [2, 4]: 14 µM
SMILES: Nc1ccccc1NC(=O)c1ccc(Oc2ccccc2)cc1 [Cpd 366, N-(2-Amino-phenyl)-4-phenoxy-benzamide]

IC50 ([1]; HCT-116, 72 h, Table 5c): 44 µM
IC50 [2, 6]: 10 µM
SMILES: Nc1ccccc1NC(=O)/C=C/c1ccc(NC/C=C/c2ccccc2)cc1 [Cpd 71]

IC50 ([1]; HCT-116, Table 5d): 22 µM
IC50 [2, 3]: 4 µM
SMILES: Nc1ccccc1NC(=O)/C=C/c1ccc(CNc2ccc(Cl)cc2)cc1 [Cpd 552, N-(2-Amino-phenyl)-3-{4-[(4-chloro-phenylamino)-methyl]-phenyl}-acrylamide]

IC50 ([1]; HCT-116, Table 5d): 11 µM
IC50 [2, 3]: 4 µM
SMILES: Nc1ccccc1NC(=O)/C=C/c1ccc(CNc2cccc(F)c2)cc1 [Cpd 559, N-(2-Amino-phenyl)-3-{4-[(3-fluoro-phenylamino)-methyl]-phenyl}-acrylamide]

IC50 ([1]; HCT-116, 72 h, Table 5F): 2 µM
IC50 [2, 4]: 4 µM
SMILES: Nc1ccccc1NC(=O)c1ccc(CNc2ccc(OCc3cccnc3)cc2)cc1 [Cpd 408, N-(2-Amino-phenyl)-4-{[4-(pyridin-3-ylmethoxy)-phenylamino]-methyl}-benzamide]

IC50 ([1]; HCT-116, 72 h, Table 5F): 2 µM
IC50 [2, 4]: 4 µM
SMILES: COc1ccc(C2=NCC(c3ccc(C(=O)Nc4ccccc4N)cc3)O2)cc1OC (centres unmarked) [compound 305, N-(2-Amino-phenyl)-4-[2-(3,4-dimethoxy-phenyl)-4,5-dihydro-oxazol-5-yl]-benzamide]

IC50 ([1]; HCT-116, Table 5d): 6 µM
IC50 [2, 3]: 15 µM
SMILES: COc1cc(OCc2ccc(/C=C/C(=O)Nc3ccccc3N)cc2)cc(OC)c1OC [Cpd 497, N-(2-Amino-phenyl)-3-[4-(3,4,5-trimethoxy-phenoxymethyl)-phenyl]-acrylamide]

IC50 ([1]; HCT-116, Table 5d): 12 µM
IC50 [2, 3]: 15 µM
SMILES: Nc1ccccc1NC(=O)/C=C/c1ccc(CNc2ccc(F)cc2)cc1 [Cpd 554, N-(2-Amino-phenyl)-3-{4-[(4-fluoro-phenylamino)-methyl]-phenyl}-acrylamide]

IC50 ([1]; HCT-116, Table 5d): 5 µM
IC50 [2, 3]: 3 µM
SMILES: Nc1ccccc1NC(=O)/C=C/c1ccc(CNc2ccc([N+](=O)[O-])c(C(F)(F)F)c2)cc1 [Cpd 534, N-(2-Amino-phenyl)-3-{4[(4-nitro-3-trifluoromethyl-phenylamino)-methyl]-phenyl}-acrylamide]

IC50 ([1]; HCT-116, 72 h, Table 5F): 6 µM
IC50 [2, 4]: 1 µM
SMILES: Nc1ccccc1NC(=O)c1ccc(CNc2ccc3[nH]c(=O)[nH]c3c2)cc1 [Cpd 449, N-(2-Amino-phenyl)-4-[(2-oxo-2,3-dihydro-1H-benzoimidazol-5-ylamino)-methyl]-benzamide]

IC50 ([1]; HCT-116, 72 h, Table 5F): 2 µM
IC50 [2, 4]: 3 µM
SMILES: Cc1cc(C)cc(NCc2ccc(C(=O)Nc3ccccc3N)cc2)c1 [Cpd 407, N-(2-Amino-phenyl)-4-[(3,5-dimethyl-phenylamino)-methyl]-benzamide]
